Experimental data reported in ChEMBL document CHEMBL5230086, “Contemporary approaches and future perspectives of antibacterial photodynamic therapy (aPDT) against methicillin-resistant Staphylococcus aureus (MRSA): A systematic review” (Eur J Med Chem, 2020).

Assays:
[1] = system: Staphylococcus aureus; test: Photodynamic antibacterial activity against Methicillin-resistant Staphylococcus aureus assessed as reduction in bacterial growth at 0.01 % followed by photo-irradiation with 5405 J/cm^2 light for 30 min by microscopic analysis; format: functional; set-up: scale not given: the % may be the effect or the level left; settings: 0.5 h
[2] = system: Staphylococcus aureus; test: Photodynamic antibacterial activity against Methicillin-resistant Staphylococcus aureus ATCC 43300 assessed as reduction in bacterial growth at 0.01 % followed by photo-irradiation with 450 nm at 5.4 J/cm^2 light for 10 min by microscopic analysis; format: functional; set-up: scale not given: the % may be the effect or the level left
[3] = system: Staphylococcus aureus; test: Photodynamic antibacterial activity against Methicillin-resistant Staphylococcus aureus clinical isolate 2 assessed as reduction in bacterial growth at 0.01 % followed by photo-irradiation with 5.4 J/cm^2 light for 30 min by microscopic analysis; format: functional; set-up: scale not given: the % may be the effect or the level left; settings: 0.5 h
[4] = system: Staphylococcus aureus; test: Photodynamic antibacterial activity against Methicillin-resistant Staphylococcus aureus clinical isolate 1 assessed as reduction in bacterial growth at 0.01 % followed by photo-irradiation with 5.4 J/cm^2 light for 30 min by microscopic analysis; format: functional; set-up: scale not given: the % may be the effect or the level left; settings: 0.5 h
[5] = system: Staphylococcus aureus; test: Photodynamic antibacterial activity against Methicillin-resistant Staphylococcus aureus ATCC 43300 assessed as reduction in bacterial growth at 0.01 % followed by photo-irradiation with 412 nm at 5.4 J/cm^2 light for 10 min by microscopic analysis; format: functional; set-up: scale not given: the % may be the effect or the level left
[6] = system: Staphylococcus aureus; test: Photodynamic antibacterial activity against Methicillin-resistant Staphylococcus aureus assessed as reduction in bacterial growth followed by photo-irradiation with 25 J/cm^2 light for 15 mins by crystal violet staining assay; format: functional; set-up: scale not given: the % may be the effect or the level left; settings: 0.25 h
[7] = system: Staphylococcus aureus; test: Photodynamic antibacterial activity against Methicillin-resistant Staphylococcus aureus assessed as reduction in bacterial colony forming unit at 8 uM followed by photo-irradiation with 30 J/cm^2 light; format: functional
[8] = system: Neutrophil; test: Cytotoxicity against C57BL/6NCr mouse Neutrophil assessed as reduction in cell viability at 20 uM followed by photo-irradiation with 20 mW/cm^2 light by tryptan blue dye based hemacytometer; format: toxicity
[9] = system: Staphylococcus aureus; test: Photodynamic antibacterial activity against Methicillin-resistant Staphylococcus aureus infected Balb/C mouse assessed as reduction in lymph node bacterial colony forming unit at 1.5 %,ID followed by photo-irradiation with 54 J/cm^2 light measured upto 72 hrs; format: functional
[10] = system: Staphylococcus aureus; test: Photodynamic antibacterial activity against Methicillin-resistant Staphylococcus aureus in bovine bone assessed as reduction in bacterial colony forming unit at 1.5 g/L followed by photo-irradiation with 20.1 J/cm^2 light for 24 hrs by fluorescence spectroscopy; format: functional
[11] = system: Staphylococcus aureus; test: Photodynamic antibacterial activity against Methicillin-resistant Staphylococcus aureus infected C57 mouse superficial wound model assessed as fold reduction in bacterial growth at 100 microg/ml,po for 15 mins followed by photo-irradiation with 360 J/cm^2 light for 30 mins; format: functional; settings: dose 100 µg/ml, time 45 min, 0.75 h
[12] = system: Staphylococcus aureus; test: Photodynamic antibacterial activity against Methicillin-resistant Staphylococcus aureus assessed as reduction in bacterial colony forming unit at 300 microg/ml followed by photo-irradiation with 664 nm for 400 sec; format: functional; settings: dose 300 µg/ml, 0.1111 h
[13] = system: Staphylococcus aureus; test: Photodynamic antibacterial activity against Methicillin-resistant Staphylococcus aureus assessed as reduction in bacterial colony forming unit at 3 uM followed by photo-irradiation with 30 J/cm^2 for 30 mins; format: functional; settings: 0.5 h
[14] = Photodynamic antibacterial activity against mix of Methicillin-resistant Staphylococcus aureus-Pseudomonas aeruginosa in endotracheal tube model assessed as reduction in growth unit at 500 microg/ml followed by photo-irradiation with 108 J/cm^2 light for 12 mins; format: functional; set-up: scale not given: the % may be the effect or the level left; settings: dose 500 µg/ml, 0.2 h
[15] = system: Staphylococcus aureus; test: Photodynamic antibacterial activity against Methicillin-resistant Staphylococcus aureus assessed as reduction in bacterial growth at 250 microg/ml followed by photo-irradiation with 100 J/cm^2 light for 100 sec; format: functional; set-up: scale not given: the % may be the effect or the level left; settings: dose 250 µg/ml, 100 s
[16] = system: Staphylococcus aureus; test: Photodynamic antibacterial activity against Methicillin-resistant Staphylococcus aureus assessed as reduction in bacterial colony forming unit at 500 microg/ml followed by photo-irradiation with 664 nm for 400 sec; format: functional; settings: dose 500 µg/ml, 0.1111 h
[17] = Cytotoxicity against C57BL/6NCr mouse Neutrophil assessed as cell viability followed by photo-irradiation with 20 mW/cm^2 light by tryptan blue dye based hemacytometer; format: toxicity; settings: mouse neutrophils, read-out: Activity
[18] = Photodynamic antibacterial activity against mix of Methicillin-resistant Staphylococcus aureus-Pseudomonas aeruginosa assessed as reduction in bacterial colony forming unit at 300 microg/ml followed by photo-irradiation with 664 nm for 400 sec; format: functional; settings: dose 300 µg/ml, 0.1111 h
[19] = system: Staphylococcus aureus; test: Photodynamic antibacterial activity against Methicillin-resistant Staphylococcus aureus infected C57 mouse excision wound model assessed as fold reduction in bacterial growth at 100 microg/ml,po for 15 mins followed by photo-irradiation with 360 J/cm^2 light for 30 mins; format: functional; settings: dose 100 µg/ml, time 45 min, 0.75 h
[20] = system: Staphylococcus aureus; test: Photodynamic antibacterial activity against Methicillin-resistant Staphylococcus aureus assessed as reduction in bacterial colony forming unit at 50 microg/ml followed by photo-irradiation with 163.8 J/cm^2 for 10 to 30 mins; format: functional; settings: dose 50 µg/ml; time 10-30 min
[21] = Photodynamic antibacterial activity against mix of Methicillin-resistant Staphylococcus aureus-Pseudomonas aeruginosa assessed as reduction in bacterial colony forming unit at 500 microg/ml followed by photo-irradiation with 664 nm for 400 sec; format: functional; settings: dose 500 µg/ml, 0.1111 h
[22] = Photodynamic antibacterial activity against mix of Methicillin-resistant Staphylococcus aureus-Pseudomonas aeruginosa in maxillary sinus model assessed as reduction in bacterial growth at 0.03 % followed by photo-irradiation with 150 mW/cm^2 light by spectrophotometry; format: functional; set-up: scale not given: the % may be the effect or the level left
[23] = Photodynamic antibacterial activity against mix of Methicillin-resistant Staphylococcus aureus-Pseudomonas aeruginosa in maxillary sinus model assessed as reduction in bacterial colony forming unit at 0.03 % followed by photo-irradiation with 150 mW/cm^2 light by spectrophotometry; format: functional
[24] = system: Staphylococcus aureus; test: Photodynamic antibacterial activity against Methicillin-resistant Staphylococcus aureus assessed as reduction in bacterial growth at 30 uM followed by photo-irradiation with violet light for 10 to 120 min; format: functional; set-up: scale not given: the % may be the effect or the level left; settings: time 10-120 min
[25] = system: Staphylococcus aureus; test: Photodynamic antibacterial activity against Methicillin-resistant Staphylococcus aureus assessed as reduction in bacterial growth at 120 uM followed by photo-irradiation with blue light for 10 to 120 min; format: functional; set-up: scale not given: the % may be the effect or the level left; settings: time 10-120 min

For Cc1cc2c(cc1C)N(C[C@H](O)C[C@H](O)CO)C1NC(=O)NC(=O)C1=N2 (stereo not given in full), the Activity [1] was 90%, the Activity [2] was 98% and the Activity [3] was 100%. It also gave an Activity [4] of 98% and an Activity [5] of 99%.

Cc1cc(O)c2c3c1-c1c(C)cc(O)c4c1C1c5c(c(O)cc(O)c5-c5c(O)cc(O)c(c5C31)C2=O)C4=O (stereo not given) gave an Activity [6] of 92.2% and an Activity [7] greater than 6 log10CFU.

CC/N=c1/cc2sc3cc(NCC)c(C)cc3nc-2cc1C.Cl showed an Activity [8] of less than 70%.

Work on COc1cc(/C=C/C(=O)CC(=O)/C=C/c2ccc(O)c(OC)c2)ccc1O [CURCUMIN] yielded an Activity [9] greater than 5 log10CFU and an Activity [10] of 3.6 log10CFU.

For CN(C)c1ccc2nc3ccc(N(C)C)cc3[s+]c2c1.[Cl-] [METHYLENE BLUE ANHYDROUS], the “fold change (FC)” value [11] was 14, the Activity [12] was 6.7 log10CFU and the Activity [13] was 7 log10CFU. For the same molecule, the Activity [14] was greater than 99.9%, the Activity [15] was greater than 99% and the Activity [16] was 7.39 log10CFU. For the same molecule, the viability [17] was greater than 80%, the Activity [18] was 6.7 log10CFU and the “fold change (FC)” value [19] was 25. It also gave an Activity [20] of 2.2 log10CFU, an Activity [21] of 7.39 log10CFU and an Activity [22] greater than 99.99%. It also gave an Activity [23] of 5 log10CFU.

In the case of Cc1cc2nc3c(=O)[nH]c(=O)nc-3n(C[C@H](O)[C@H](O)[C@H](O)COP(=O)(O)O)c2cc1C [RIBOFLAVIN 5'-PHOSPHATE], the Activity [24] is reported as 97% and the Activity [25] is reported as 95.2%.
